Data: patent US9221800B2, “Isoxazole treatments for diabetes” (The Board of Regents of the University of Texas System, priority 2011, dated 2015)

Experiments:
human islets [1] = assay: Insulin secretion and insulin content (ELISA) of cultured human islets; format: cell-based
Method: (§1) FIGS. 1A-E. Isx (LSH-1) induces expression of insulin and transcription factors in primary cultured human islets. (FIG. 1A) Primary human islets that had been cultured in RPMI 160 for 6 months were treated with vehicle or 40 μM Isx for 1 or 2 d. Expression of human insulin and glucagon genes was assessed by Taqman quantitative RT-PCR. (FIG. 1B) Insulin secretion measured by ELISA over 24 h from islets treated with Isx or vehicle for 1 or 2 d. (FIG. 1C) Total insulin content of islets cultured for 3 mo and fresh islets, each treated for 48 h with Isx or DMSO. (FIG. 1D) Time course of pancreatic gene induction in islets cultured for 1 year treated with DMSO (8 days) or 40 μM Isx for 2, 4 or 8 days. (FIG. 1E) Immunohistochemical staining using antibodies against insulin, BETA2, Neurogenin3 (Ngn3) and MafA of islets cultured for 2 months and treated with Isx or vehicle for 48 h. Nuclei were stained with DAPI.
FIGS. 5A-E. Gene expression induced by Isx (LSH-1) in human islet cultures. (FIG. 5A) Structure of the lead compound N-cyclopropyl-5-(thiophen-2-yl)isoxazole-3-carboxamide (Isx) used in this study. (FIG. 5B) Expression profiles of relevant islet factors by Sybr-Green qPCR analyses from human islets cultured for 1 year as in FIG. 1D. (FIG. 5C) Insulin immunohistochemical staining in human islets cultured for 2 months. Nuclei are stained with DAPI. (FIG. 5D) Immunoblotting of whole cell extracts from human islets cultured for six months treated with vehicle (DMSO) or Isx for 24 h. (FIG. 5E) Human islets cultured for 6 months were treated with DMSO (Veh) or Isx for 48 h. To implicate signaling pathways that are required for the isoxazole-driven increase in β cell function, measured as GSIS, the isoxazole-treated islets were also treated with vehicle (Veh), 10 μM U0126 (U), 10 μM Nifedipine-BAPTA (N-B), or 0.1 μM wortmannin (W) for the duration of the isoxazole treatment.
MIN6 cells were cultured in DMEM (Gibco), containing 25 mM glucose, 10% fetal bovine serum, 10 mM Hepes pH 7.4, 10.2 mM L-glutamine, […] sodium pyruvate, 2.5 mM β-mercaptoethanol, 100 U/ml penicillin and 100 μg/ml streptomycin at 37° C. in 10% CO2. Human islets were obtained from the ICR Basic Science Islet Distribution and from the University of Alabama, Birmingham Islet Resource Facility and were cultured in RPMI 1640 with 11 mM glucose for up to 1 year. The medium was changed twice weekly and the islets were subcultured when they reached 90% confluence. For Isx treatments, cells were incubated in medium containing either Isx or the equivalent volume of DMSO vehicle (0.04%). […]

human islets [2] = assay: Immunohistochemical staining of cultured human islets; format: cell-based; details: islets in culture for 2 months, Isx for 2 days (FIG. 1E)
Method: as §1

O=C(NC1CC1)c1cc(-c2cccs2)on1 [Isx, N-cyclopropyl-5-(thiophen-2-yl)isoxazole-3-carboxamide]
increase of insulin content of fresh islets (human islets [1]; 2-day exposure to Isx): ~25%
Insulin content relative to the insulin content of islets isolated only 1 week earlier (human islets [1]; 3 month-old islets treated with Isx (FIG. 1C)): ~75%
Insulin content increase (human islets [1]; 3 month-old islets, Isx 48 h (FIG. 1C)): ~10 fold
Insulin secreted over a 24-h period (human islets [1]; human islets in culture for 6 months, Isx 1 or 2 d (FIG. 1B)): markedly increased
Ngn3, BETA2, and insulin immunostaining (human islets [2]): obvious increase
